We go through 99 compounds from ChEMBL document CHEMBL3507680, “University of Dundee, Gates Library screen for HepG2 cell viability”.

Structures are written as SMILES.

The nature of this series: Human HepG2 cell viability assay in 384 well format. To be noted: HepG2 cells, read-out: Inhibition. On the set-up: dose 125 nL, time 70.5 hour; concentration not given beside the values. It is filed as toxicity, cell-based.
Consider `CCc1ccc(C(=O)N(CC)Cc2ccoc2)cc1S(C)(=O)=O`, for which the cytotoxicity at 70.5 h is -13.3%.

`CN(CCc1ccncc1)CC1CCCN1c1cccnn1` (centres undefined): the cytotoxicity at 70.5 h was 25.1%.

As for `COc1ccc(C2CCCN2Cc2nc3c(cnn3C)c(=O)[nH]2)cc1` (centres undefined), the cytotoxicity at 70.5 h was -8.35%.

As for `Oc1cccc(-c2cc(CC3(N(CC4CC4)CC4CC4)COC3)no2)c1`, the cytotoxicity at 70.5 h was -6.61%.

As to `C=C(C)COc1ccccc1NC(=O)N1CCOCC1CO` (centres undefined), the cytotoxicity at 70.5 h came out at 7.4%.

As to `Cc1ccc2c(n1)N(Cc1cccnc1)CCN(Cc1cnn(C)c1)C2`, the cytotoxicity at 70.5 h is -2.59%.

As for `Cn1nccc1CCNC(=O)[C@H]1CNC[C@H](C(=O)N2CCCC2)C1`, the cytotoxicity at 70.5 h came to 0.341%.

As to `CN(C)c1cc(CNC(=O)Nc2ccc(S(C)(=O)=O)nc2)ccn1`, the cytotoxicity at 70.5 h was -15.4%.

`COc1cc(OC)cc(N2CCC(NC(=O)c3cccn3C)CC2)c1`: the cytotoxicity at 70.5 h was -13.4%.

For the compound `CCOc1ccccc1OC1CCN(C(=O)c2cc[nH]n2)CC1`, the cytotoxicity at 70.5 h was -1.68%.

As for `Cn1nc(C(C)(C)C)cc1NC(=O)Cn1ccccc1=O`, the cytotoxicity at 70.5 h was -12%.

For the compound `CS(=O)(=O)N1CCCC1Cn1cccn1` (centres undefined), the cytotoxicity at 70.5 h amounted to 2.44%.

Regarding `CC(C)NC(=O)C1Cc2nc(-c3ccsc3)sc2N1CC1CC1` (centres undefined), the cytotoxicity at 70.5 h was -6.43%.

Consider `CC(C)C1CN(C(=O)c2ccc(Cl)cn2)CCCN1CC1CC1` (centres undefined), for which the cytotoxicity at 70.5 h is -6.77%.

As to `Cc1nc2c(c(N3CCC(O)(CN4CCCC4)CC3)n1)CCNCC2`, the cytotoxicity at 70.5 h was -3.88%.

On to `O=C(c1cnn2c1OCCC2)N1CCN(C(=O)C2CCCO2)CC1` (centres undefined), for which the cytotoxicity at 70.5 h was -5.75%.

`COC1CCCOC12CCN(C(=O)NCc1ccco1)CC2` (centres undefined): the cytotoxicity at 70.5 h is -1.17%.

For the compound `O=C(c1ccccn1)N1CCC(Oc2cccnc2)CC1`, the cytotoxicity at 70.5 h is -8.37%.

Consider `COc1ccc(OC)c(NC(=O)N2CCCC2c2ccco2)c1` (centres undefined), for which the cytotoxicity at 70.5 h was -12.9%.

Regarding `CC(C)(O)CSCCNC(=O)c1cc(F)ccc1F`, the cytotoxicity at 70.5 h was determined as 12.9%.

Turning to `N#CCCCS(=O)(=O)NC1(c2cccc(Cl)c2)CC1`, the cytotoxicity at 70.5 h is -9.01%.

Turning to `COCCN1CCN(CC(C)(O)c2cccc(C(F)(F)F)c2)CC1` (centres undefined), the cytotoxicity at 70.5 h was -12.6%.

For the compound `COCCN1CCC(c2nc3ccc(NC4CCC4)cn3n2)CC1`, the cytotoxicity at 70.5 h worked out at 0.236%.

For `CCN(Cc1ccccc1)C(=O)CN1CCCCC1Cn1cncn1` (centres undefined), the cytotoxicity at 70.5 h is -6.76%.

Consider `CCCc1nc(N2CCN(Cc3ccccn3)CC2)c2cnn(C)c2n1`, for which the cytotoxicity at 70.5 h is -6.11%.

For `O=C(c1cccc(O)n1)N1CCC(O)(CN2CCC(F)(F)CC2)C1` (centres undefined), the cytotoxicity at 70.5 h was -8.18%.

Consider `Cc1cnccc1N1CCCN(C(=O)CCCc2cn[nH]c2)CC1`, for which the cytotoxicity at 70.5 h was 2.95%.

As to `Cc1ccccc1C1(C(=O)N2CCOC(C)C2)CCOCC1` (centres undefined), the cytotoxicity at 70.5 h is -5.13%.

Take `CN1CCC(NC(=O)c2cc(Br)cc(Cl)c2O)C1=O` (centres undefined): the cytotoxicity at 70.5 h is -1.22%.

For `Cc1nn(C)c(C)c1C1CCCN1Cc1nc2ccccc2c(=O)[nH]1` (centres undefined), the cytotoxicity at 70.5 h is -0.414%.

`Cc1ccc(-c2nnc(CN3CCOC(Cn4cccn4)C3)o2)cc1` (centres undefined): the cytotoxicity at 70.5 h is -7.48%.

With `Cc1cc(C)c2cc(CNCCCN3CCOCC3)c(=O)[nH]c2c1`, the cytotoxicity at 70.5 h was -7.01%.

Turning to `Cc1nonc1NC(=O)C1SCCc2sccc21` (centres undefined), the cytotoxicity at 70.5 h was 32.5%.

`Cc1cc(C(C)NC(=O)Cn2nc(C)c3ccccc3c2=O)c(C)o1` (centres undefined): the cytotoxicity at 70.5 h is 18.3%.

Consider `Cc1ncc2c(n1)CCN(Cc1nc3ccccc3o1)C2`, for which the cytotoxicity at 70.5 h was 0.854%.

Turning to `COCCOCC(=O)N1C[C@@H]2CC[C@H](Oc3ccccc3Cl)[C@@H]2C1`, the cytotoxicity at 70.5 h is 0.895%.

For the compound `Cc1cccc(NC(C)C(=O)Nc2nccs2)c1` (centres undefined), the cytotoxicity at 70.5 h is -14.6%.

In the case of `Cn1nc(C(=O)NCc2ccc(Cl)cc2)c2c1CCS(=O)(=O)C2`, the cytotoxicity at 70.5 h amounted to 2.61%.

Turning to `F[C@@H]1CN(CC2CC2)C[C@@H]1OCc1nc2ccc(C(F)(F)F)cc2[nH]1`, the cytotoxicity at 70.5 h was 0.533%.

For `NS(=O)(=O)CCN1CCN(c2ccccc2O)CC1`, the cytotoxicity at 70.5 h is -0.407%.

In the case of `O=C(CCCN1C(=O)CCC1=O)NCC1(c2ccccc2)CCC1`, the cytotoxicity at 70.5 h is -11.4%.

Turning to `O=C(O)c1cc2c(nc1-c1ccoc1)CCN(CC1CCOC1)CC2` (centres undefined), the cytotoxicity at 70.5 h was -13.1%.

`O=C(Cc1ccccn1)N1CCN2C[C@H](Oc3cccc(F)c3)C[C@H]2C1`: the cytotoxicity at 70.5 h was determined as 33.7%.

In the case of `CC(=O)NC(C)c1ccc(OCC2CC2)c(F)c1` (centres undefined), the cytotoxicity at 70.5 h was -6.57%.

`COC(=O)Cn1c(=O)nc2n1C(=O)N(c1ccc(F)cc1)C2`: the cytotoxicity at 70.5 h is -12.5%.

As for `Clc1cc(NCc2ccncc2)nc2[nH]ccc12`, the cytotoxicity at 70.5 h worked out at 13%.

Take `O=C(CCn1ccc2ccccc21)Nc1ccnn1CC1CCOC1` (centres undefined): the cytotoxicity at 70.5 h was -16.3%.

In the case of `CCCc1nn(Cc2csc(CC)n2)c(=O)o1`, the cytotoxicity at 70.5 h is -4.3%.

For the compound `O=C(c1ccc(O)nc1)N1CCN(C(=O)c2ccc(F)c(F)c2)CC1`, the cytotoxicity at 70.5 h was -2.92%.

For `O=C1CN(c2ccc(CNc3cncc(-n4cccn4)n3)cc2)CCN1`, the cytotoxicity at 70.5 h was -0.149%.

With `NC(=O)N1CCCC1COC(=O)c1cc(F)ccc1F` (centres undefined), the cytotoxicity at 70.5 h is -1.3%.

Regarding `CCOc1cc(C)ccc1NS(=O)(=O)c1cc(C)c(C(=O)O)s1`, the cytotoxicity at 70.5 h is -1.53%.

Take `CCn1ccnc1CN1CCN(c2ncnc3ccccc23)CC1`: the cytotoxicity at 70.5 h is -2.5%.

With `COc1ccc(CN(C(=O)CCC(C)C)c2cnn(C)c2)c(OC)c1`, the cytotoxicity at 70.5 h was -4.57%.

With `CCC1=N[C@@]2(CC[C@@H]3CN(S(=O)(=O)CC(C)C)C[C@@H]32)C(=O)N1C`, the cytotoxicity at 70.5 h is -1.14%.

As to `COc1ccccc1C(=O)Nc1c(F)c(C(=O)NC2CCCC2)nn1C`, the cytotoxicity at 70.5 h is -7.93%.

In the case of `CS(=O)(=O)NC[C@]12COC[C@H]1CN(C(=O)C1CC(F)(F)C1)C2`, the cytotoxicity at 70.5 h is -2.39%.

With `Cc1ccsc1C(Cc1ccccc1)NC(=O)CSCC(N)=O` (centres undefined), the cytotoxicity at 70.5 h was -4.76%.

As to `Cc1cnn(CC2CN(CC(=O)N(C)Cc3cccs3)CCO2)c1` (centres undefined), the cytotoxicity at 70.5 h is -1.56%.

In the case of `CC(C)N(C)Cc1cncc2c1CCN(C(=O)c1cccc(C#N)c1)C2`, the cytotoxicity at 70.5 h was -4.95%.

On to `c1nc2c(c(-c3ccsc3)n1)CCN(Cc1ccoc1)CC2`, for which the cytotoxicity at 70.5 h was 19.3%.

`c1cncc(COC[C@@H]2CCC[C@@]23CNCCO3)c1`: the cytotoxicity at 70.5 h is 8.38%.

For the compound `Cc1nc(CN2CCc3nc(N4CCCC4)nc(NC(C)C)c3C2)cs1`, the cytotoxicity at 70.5 h was -3.99%.

As for `CN(CCCC1CCCO1)S(=O)(=O)NCc1ccccc1` (centres undefined), the cytotoxicity at 70.5 h amounted to 10.8%.

As for `CN(C)CCNC(=O)C1Cc2nc(-c3ccsc3)sc2N1CC1CC1` (centres undefined), the cytotoxicity at 70.5 h is -4.49%.

On to `Cc1ccccc1S(=O)(=O)Cc1nsc(N(C)C)n1`, for which the cytotoxicity at 70.5 h came to 0.131%.

As to `CN1CCCN(C(=O)c2nnn(-c3ccc(C(F)(F)F)cc3)n2)CC1`, the cytotoxicity at 70.5 h was -4.86%.

With `Nc1nc(SCc2ccc3c(c2)OCO3)ns1`, the cytotoxicity at 70.5 h is -0.0923%.

As to `CS(=O)(=O)CCN(Cc1cccc(O)c1)C1CCC(O)CC1` (centres undefined), the cytotoxicity at 70.5 h was -4.64%.

Turning to `CCC(NC(=O)C1CC1)c1ccccc1OCC(=O)N1CCCC1` (centres undefined), the cytotoxicity at 70.5 h was -6.4%.

`COc1ccc(CNC(Cn2cncn2)c2ccccc2)cc1O` (centres undefined): the cytotoxicity at 70.5 h was -0.077%.

With `CNc1cc(C2CCCN(S(=O)(=O)c3cn[nH]c3)C2)ccn1` (centres undefined), the cytotoxicity at 70.5 h is -16.1%.

As to `Cn1ccc(CN2CCC(OCc3ccccc3)CC2)cc1=O`, the cytotoxicity at 70.5 h amounted to 21.5%.

`Cc1nc(O)cc(CCNC(=O)CC[C@@H]2CCCN3CCCC[C@H]23)n1`: the cytotoxicity at 70.5 h was -9.84%.

Take `CS(=O)(=O)c1cnc(CC2CC2)nc1C1CCCNC1` (centres undefined): the cytotoxicity at 70.5 h is 19.7%.

As to `O=c1oc(-c2ccc(F)cc2)nn1CN1CCCCC1`, the cytotoxicity at 70.5 h was -18.4%.

`O=C(c1cnc(O)cc1O)N1CCCC(CCc2ccccc2F)C1` (centres undefined): the cytotoxicity at 70.5 h was -11.4%.

Consider `CC(=O)NCC(=O)N1C[C@@H]2CC[C@H](Oc3ccccc3Cl)[C@@H]2C1`, for which the cytotoxicity at 70.5 h came to 12.5%.

With `CCc1cnc(C)nc1NCCSc1nnc(C)n1CC`, the cytotoxicity at 70.5 h came to 0.501%.

In the case of `FC1(F)CCNCC12CCN(c1ccccn1)C2` (centres undefined), the cytotoxicity at 70.5 h was 9.9%.

In the case of `Cc1ccc(-n2c(O)cc(C)c(C#N)c2=O)c(C)c1`, the cytotoxicity at 70.5 h was -1.45%.

On to `CCC1CN(c2ncnc3nc[nH]c23)CCO1` (centres undefined), for which the cytotoxicity at 70.5 h was determined as 11.7%.

On to `CNC(=O)c1ccc2c(c1)C1(CCN(CC(C)C)CC1)C(=O)N2`, for which the cytotoxicity at 70.5 h was -10.5%.

On to `CCN(CC)Cc1cc(=O)n2c(n1)CN(C(=O)c1ccc[nH]1)CCC2`, for which the cytotoxicity at 70.5 h is -4.87%.

As for `Cc1ccc(C(=O)N2CCc3c(CN4CCCC4)nn(C)c3C2)cc1C`, the cytotoxicity at 70.5 h was -2.24%.

Consider `COc1cccc(-c2n[nH]cc2C(=O)NC(C)c2n[nH]c(C)n2)c1` (centres undefined), for which the cytotoxicity at 70.5 h is 13.9%.

Turning to `CN(Cc1cc2cc(F)ccc2[nH]1)C(=O)C1CC(=O)N(C2CCCC2)C1` (centres undefined), the cytotoxicity at 70.5 h was -4.53%.

Take `COc1cnc(N2C[C@@H](CN3CCOCC3)C[C@H](CO)C2)nc1`: the cytotoxicity at 70.5 h was -2.56%.

In the case of `c1ccc2c(OCCN3CCn4c(nnc4C4CC4)C3)cccc2c1`, the cytotoxicity at 70.5 h was 2.06%.

`Cc1cccc(N2CCN(C(=O)Nc3cnn(CC(N)=O)c3)CC2)c1`: the cytotoxicity at 70.5 h was -18.1%.

Consider `C=C(C)CN1CCC(NC(=O)c2scnc2C)CC1`, for which the cytotoxicity at 70.5 h is -5.87%.

As for `Cc1cc(C2CCCN2Cc2ccc(S(=O)(=O)N(C)C)o2)on1` (centres undefined), the cytotoxicity at 70.5 h is -1.52%.

For `OC1(CNCCCN2CCCc3ccccc32)CNCCOC1` (centres undefined), the cytotoxicity at 70.5 h was -13%.

Take `CC(C)Oc1ccc(CN2CCN3CCN(C)CC3C2)cc1CO` (centres undefined): the cytotoxicity at 70.5 h is -5.57%.

Consider `COc1c(CNCCc2c[nH]c3ccccc23)c(C(C)C)nn1C`, for which the cytotoxicity at 70.5 h came out at 2.12%.

Consider `CN(Cc1ccncc1)CC1CCCN(CCc2ccc(Cl)cc2)C1` (centres undefined), for which the cytotoxicity at 70.5 h is -0.313%.

As for `CCN(CC)CC(=O)N1CCCCC1c1nc(C)cs1` (centres undefined), the cytotoxicity at 70.5 h is -2.06%.

As to `COc1ccc(CN2C[C@@H]3OCC(=O)N(Cc4nccn4C)[C@@H]3C2)cc1`, the cytotoxicity at 70.5 h was -3.1%.

Turning to `CCOc1ccc(CCC(=O)N2CC[C@H]3C(=O)NCCO[C@H]3C2)cc1`, the cytotoxicity at 70.5 h is -10.6%.
